US20240299484A1, “DILEUCINE COMPOSITIONS AND METHODS OF USE THEREOF” (Ingenious Ingredients, LP, priority 2023, published 2024)
Marks after values point to notes of the source that are not given here.

What was measured:
Format in all cases: in vivo, Swiss Albino mice
[1] = tested on: low-density lipids (LDL); experiment: Blood lipids: LDL
Method: (§1) Eight 8-week-old male Swiss Albino mice per experimental group were housed in an animal room at a constant temperature (22±3° C.) and humidity (30%-70%) under a 12:12 h light-dark cycle with standard laboratory diet (Purina 5L79, Rat and Mouse 18% protein; PMI Nutrition International, Brentwood, MO, USA). Distilled water was provided ad libitum. All animal experiments were reviewed and approved by the Institutional Animal Ethical Committee (IAEC) of Radiant Research Services Pvt. Ltd (Bangalore, India). All research was conducted in accordance with the guidelines of the committee for the purpose of control and supervision of experiments on animals (CPCSEA Registration Number-1803/PO/RcBi/S/2015/CPCSEA).
(§2) After one week of acclimation, the animals were randomly divided by body weight into different groups (n=8 per group in each test) for oral treatment once a day, at approximately same time each day (+1 hour), for 28 consecutive days: (1) vehicle control; (2) paraxanthine (3) dileucine; (4) paraxanthine+dileucine; (5) L-arginine; (6) L-arginine+dileucine; (7) L-citrulline; and (8) L-citrulline+dileucine. The dose administered to the mice was calculated using US Food and Drug Administration for human equivalence doses (HED), assuming a human weight of 60 kg. The following HED were used in this study: 2,000 mg dileucine (RAMPS™, Ingenious Ingredients, L.P., Lewisville, TX, USA; mouse 411 mg/kg bw), 100 mg paraxanthine, (ENFINITY™, Ingenious Ingredients, L.P Lewisville, TX, USA; mouse dose: 20.5 mg/kg bw/day); 3,000 mg L-arginine (Nanjing Nutrabuilding Bio-tech Co., LTD., No. 270 Jiqingmen Strect, Suning Huigu, Building E6, Room 2105, Nanjing, China 210017; mouse 616.55 mg/kg bw), 3,000 mg L-citrulline (Nanjing Nutrabuilding Bio-tech Co., LTD., No. 270 Jiqingmen Street, Suning Huigu, Building E6, Room 2105, Nanjing, China 210017; mouse 616.55 mg/kg bw). 0.5% Carboxy Methyl Cellulose sodium was used as vehicle and the test item formulations were prepared daily. Dosing was conducted via oral gavage using disposable polypropylene syringes with sterilized stainless steel gavage tubes. The food intake and water consumption were monitored daily, and BW was recorded weekly. The last dose on day 28 was given 1 hour prior to testing.
(§3) All animals were euthanized by 95% CO2 after 28 days of following their assigned treatment. Blood was collected immediately after euthanization by the retro-orbital route and was immediately centrifuged at 1500×g for 10 min at 4° C. before having all serum transferred into cryogenic tubes and stored at −80° C.
(§4) Serum and plasma samples were separated by centrifuging the blood at 8000 rpm for 10 mins and analyze the below mentioned biomarkers, Biomarkers: TC, TG, LDL and HDL, CRP, Serum lactate, Ammonia, Glucose, NO, IL-2, IL-6, IL-10. Blood was collected in EDTA tubes for below mentioned biomarkers, Immune health Biomarkers (T helper subsets): TH1, TH2, TH17, Tfh, iTreg.

[2] = Forelimb grip strength test
Method: as §1, §2
The forelimb grip strength was measured on day 0 and day 28 by using a stainless-steel grill to assess muscle strength (Orchid Scientific & Innovative India Pvt Ltd, India). Grip strength was measured one hour after treatment. Briefly, each mouse was placed on a grill chamber and the steel bar is inverted; grip strength is measured by recording the time each animal holds the steel bar. The maximum time for each trial was six minutes. Each animal performed three independent trials separated by six minutes intervals and the mean of the three trials was calculated.

[3] = Effect on body weight, 28-day oral supplementation with exercise
Method: as §1, §2
Individual body weights were recorded at receipt, on the day of randomization, on the first day of treatment before dosing (Day 1) and weekly thereafter. The body weight changes for all the animals were calculated and reported along with the body weight data.

[4] = tested on: high-density lipids (HDL); experiment: Blood lipids: HDL
Method: as §1, §2, §3, §4

[5] = tested on: Tfh; experiment: Immune health biomarkers (T helper subsets): Tfh
Method: as §1, §2, §4

[6] = tested on: total cholesterol (TC); experiment: Blood lipids: total cholesterol
Method: as §1, §2, §3, §4

[7] = tested on: IL-2; experiment: Inflammatory markers: IL-2
Method: as §1, §2, §3, §4

[8] = tested on: C-reactive protein (CRP); experiment: Inflammatory markers: CRP
Method: as §1, §2, §3, §4

[9] = tested on: triglycerides (TG); experiment: Blood lipids: triglycerides
Method: as §1, §2, §3, §4

[10] = tested on: TH2; experiment: Immune health biomarkers (T helper subsets): TH2
Method: (§5) PMI Nutrition International, Brentwood, MO, USA). Distilled water was provided ad libitum. All animal experiments were reviewed and approved by the Institutional Animal Ethical Committee (IAEC) of Radiant Research Services Pvt. Ltd (Bangalore, India). All research was conducted in accordance with the guidelines of the committee for the purpose of control and supervision of experiments on animals (CPCSEA Registration Number-1803/PO/[…]). […] (1) vehicle control; […] (4) paraxanthine+dileucine; […] The dose administered to the mice was calculated using US Food and Drug Administration for human equivalence doses (HED), assuming a human weight of 60 kg. […] Dosing was conducted via oral gavage using disposable polypropylene syringes with sterilized stainless steel gavage tubes. The food intake and water consumption were monitored daily, and BW was recorded weekly. The last dose on day 28 was given 1 hour prior to testing. Serum and plasma samples were separated by centrifuging the blood at 8000 rpm for 10 mins and analyze the below mentioned biomarkers, Biomarkers: TC, TG, LDL and HDL, CRP, Serum lactate, Ammonia, Glucose, NO, IL-2, IL-6, IL-10. Blood was collected in EDTA tubes for below mentioned biomarkers, Immune health Biomarkers (T helper subsets): […]

[11] = tested on: iTreg; experiment: Immune health biomarkers (T helper subsets): iTreg
Method: as §1, §2, §4

[12] = tested on: TH1; experiment: Immune health biomarkers (T helper subsets): TH1
Method: as §5

[13] = after 28 days of supplementation, mice, n = 8
[14] = T helper subset in blood after 28 days, mice, n = 8
[15] = after 28 days of supplementation and exercise, mice, n = 8

Cn1c(=O)[nH]c2ncn(C)c2c1=O [Paraxanthine, 1,7-dimethylxanthine]
LDL [1, 13]: 43.23 mg/dL
LDL Change over control [%] ([1]; vs Exercise Control, 28 days): −1%
Forelimb grip strength (gf) Day −0 ([2]; Day −0 (baseline), mice, n = 8): 98.38 gf
Forelimb grip strength (gf) Day −28 ([2]; Day −28, one hour after treatment, oral once a day for 28 days): 148.88*** gf
Increase strength over Day −0 ([2]; Day −28 minus Day −0): 50.5 gf
Percentage Increase over control (grip strength) ([2]; increase vs Exercise Control, 28 days): 79%
Body Weight (grams) Day −0 ([3]; Day −0 (baseline), mice, n = 8): 24.35 grams
Weight gain in grams ([3]; Day −0 to Day −28, oral once a day): 8.86 grams
Body Weight (grams) Day −28 ([3]; Day −28, oral once a day for 28 days, mice, n = 8): 33.21* grams
Percentage weight loss over control ([3]; weight gain vs Exercise Control, 28 days): −18%
HDL [4, 13]: 36.36 mg/dL
HDL Change over control [%] ([4]; vs Exercise Control, 28 days): 4%
Tfh(%) (mg/L) [5, 14]: 54.96*** %
Tfh Change over control [%] ([5]; vs Exercise Control, 28 days): 603%
TC [mg/dl] [6, 13]: 91.66** mg/dl
TC Change over control [%] ([6]; vs Exercise Control, 28 days): −8%
IL-2 [7, 15]: 45.91 ng/L
IL-2 Change over control [%] ([7]; vs Exercise Control, 28 days): 23%
CRP (mg/L) [8, 15]: 0.64** mg/L
CRP Change over control [%] ([8]; vs Exercise Control, 28 days): −17%
TG [9, 13]: 91.94 mg/dL
TG Change over control [%] ([9]; vs Exercise Control, 28 days): −4%
TH2(%) [10, 14]: 53.63*** %
TH2 Change over control [%] ([10]; vs Exercise Control, 28 days): 368%
iTreg(%) (mg/L) [11, 14]: 23.68*** %
iTreg Change over control [%] ([11]; vs Exercise Control, 28 days): −57%
TH1(%) [12, 14]: 65.68*** %
TH1 Change over control [%] ([12]; vs Exercise Control, 28 days): −30%
